Measured values: patent US10046060B2, “Co-administration of an agent linked to an internalization peptide with an anti-inflammatory” (NoNO Inc., priority 2007, dated 2018)
Ends that are not written are not given here.

Tested on: humans
Experiment: Safety, Tolerability and Pharmacokinetic Study in humans: blood histamine
Assay type: in vivo, human
Details: for Average histamine level of subjects with >10 nmol/L / Maximum histamine level: 3.75 mg/kg
Experimental: We carried out a Safety, Tolerability and Pharmacokinetic Study of Tat-NR2B9c in humans. Subjects were either normal, healthy, non-smoking males or post-menopausal or surgically sterile female subjects with a minimum age of 18 years. The subjects were either administered Tat-NR2B9c, Lot #: 124-134-001B, or were given placebo (Phosphate Buffered Saline), Lot #: 124-134-001A, administered as an intravenous infusion (10±1 minutes). Four subjects were dosed in each of Cohorts 1 to 3, and 10 subjects were dosed in each of Cohorts 4 to 8. All 62 subjects completed the study. Treatment periods for each cohort were as follows: Cohort 1: Sep. 14, 2006; Cohort 2: Sep. 26, 2006; Cohort 3: Oct. 6, 2006; Cohort 4: Oct. 20, 2006; Cohort 5: Nov. 6, 2006; Cohort 6: Dec. 4, 2006; Cohort 7: Dec. 17, 2006; Cohort 8: Feb. 25, 2007.
During the study period, 11 blood samples were collected for pharmacokinetic analysis from each subject at the following timepoints: 0.00 (pre-dose), 0.08 (5 minutes), 0.17 to 0.25 (10 to 15 minutes, precisely at the end of each individual drug infusion), 0.33 (20 minutes), 0.50, 0.75, 1.00, 2.00, 6.00, 12.00, and 24.00 hours post-dose. In addition, 8 blood samples were collected for histamine analysis from each subject at the following timepoints: 0.00 (pre-dose), and at 0.08 (5 minutes), 0.17 (10 minutes), 0.25, 0.50, 1.00, 2.00, and 24.00 hours post-dose.

[1] = 10 minutes after start of administration
[2] = 15 minutes after start of administration

## YGRKKRRQRRRKLSSIESDV [Tat-NR2B9c]
[1]
  Average histamine level of subjects with >10 nmol/L: 24.3 nmol/L
  Maximum histamine level: 39.8 nmol/L
[2]
  Average histamine level of subjects with >10 nmol/L: 15.3 nmol/L
  Maximum histamine level: 20.3 nmol/L
NA-1 0.02 mg/kg (n = 2), Day 1, 0.00 hr
  Number of Subjects with Histamine levels >10 nmol/L: 0
NA-1 0.02 mg/kg (n = 2), Day 1, 0.08 hr
  Number of Subjects with Histamine levels >10 nmol/L: 0
NA-1 0.02 mg/kg (n = 2), Day 1, 0.17 hr
  Number of Subjects with Histamine levels >10 nmol/L: 0
NA-1 0.02 mg/kg (n = 2), Day 1, 0.25 hr
  Number of Subjects with Histamine levels >10 nmol/L: 0
NA-1 0.02 mg/kg (n = 2), Day 1, 0.50 hr
  Number of Subjects with Histamine levels >10 nmol/L: 0
NA-1 0.02 mg/kg (n = 2), Day 1, 1.00 hr
  Number of Subjects with Histamine levels >10 nmol/L: 0
NA-1 0.02 mg/kg (n = 2), Day 1, 2.00 hr
  Number of Subjects with Histamine levels >10 nmol/L: 0
NA-1 0.02 mg/kg (n = 2), Day 1, 24.00 hr
  Number of Subjects with Histamine levels >10 nmol/L: 0
NA-1 0.02 mg/kg (n = 2), Day 7
  Number of Subjects with Histamine levels >10 nmol/L: 0
NA-1 0.02 mg/kg (n = 2), Day 14
  Number of Subjects with Histamine levels >10 nmol/L: 0
NA-1 0.02 mg/kg (n = 2), Day 28 End-of-study
  Number of Subjects with Histamine levels >10 nmol/L: 0
NA-1 0.02 mg/kg (n = 2), Screening
  Number of Subjects with Histamine levels >10 nmol/L: 0
NA-1 0.08 mg/kg (n = 2), Day 1, 0.00 hr
  Number of Subjects with Histamine levels >10 nmol/L: 0
NA-1 0.08 mg/kg (n = 2), Day 1, 0.08 hr
  Number of Subjects with Histamine levels >10 nmol/L: 0
NA-1 0.08 mg/kg (n = 2), Day 1, 0.17 hr
  Number of Subjects with Histamine levels >10 nmol/L: 0
NA-1 0.08 mg/kg (n = 2), Day 1, 0.25 hr
  Number of Subjects with Histamine levels >10 nmol/L: 0
NA-1 0.08 mg/kg (n = 2), Day 1, 0.50 hr
  Number of Subjects with Histamine levels >10 nmol/L: 0
NA-1 0.08 mg/kg (n = 2), Day 1, 1.00 hr
  Number of Subjects with Histamine levels >10 nmol/L: 0
NA-1 0.08 mg/kg (n = 2), Day 1, 2.00 hr
  Number of Subjects with Histamine levels >10 nmol/L: 0
NA-1 0.08 mg/kg (n = 2), Day 1, 24.00 hr
  Number of Subjects with Histamine levels >10 nmol/L: 0
NA-1 0.08 mg/kg (n = 2), Day 7
  Number of Subjects with Histamine levels >10 nmol/L: 0
NA-1 0.08 mg/kg (n = 2), Day 14
  Number of Subjects with Histamine levels >10 nmol/L: 0
NA-1 0.08 mg/kg (n = 2), Day 28 End-of-study
  Number of Subjects with Histamine levels >10 nmol/L: 0
NA-1 0.08 mg/kg (n = 2), Screening
  Number of Subjects with Histamine levels >10 nmol/L: 0
NA-1 0.20 mg/kg (n = 2), Day 1, 0.00 hr
  Number of Subjects with Histamine levels >10 nmol/L: 0
NA-1 0.20 mg/kg (n = 2), Day 1, 0.08 hr
  Number of Subjects with Histamine levels >10 nmol/L: 0
NA-1 0.20 mg/kg (n = 2), Day 1, 0.17 hr
  Number of Subjects with Histamine levels >10 nmol/L: 0
NA-1 0.20 mg/kg (n = 2), Day 1, 0.25 hr
  Number of Subjects with Histamine levels >10 nmol/L: 0
NA-1 0.20 mg/kg (n = 2), Day 1, 0.50 hr
  Number of Subjects with Histamine levels >10 nmol/L: 0
NA-1 0.20 mg/kg (n = 2), Day 1, 1.00 hr
  Number of Subjects with Histamine levels >10 nmol/L: 0
NA-1 0.20 mg/kg (n = 2), Day 1, 2.00 hr
  Number of Subjects with Histamine levels >10 nmol/L: 0
NA-1 0.20 mg/kg (n = 2), Day 1, 24.00 hr
  Number of Subjects with Histamine levels >10 nmol/L: 0
NA-1 0.20 mg/kg (n = 2), Day 7
  Number of Subjects with Histamine levels >10 nmol/L: 0
NA-1 0.20 mg/kg (n = 2), Day 14
  Number of Subjects with Histamine levels >10 nmol/L: 0
NA-1 0.20 mg/kg (n = 2), Day 28 End-of-study
  Number of Subjects with Histamine levels >10 nmol/L: 0
NA-1 0.20 mg/kg (n = 2), Screening
  Number of Subjects with Histamine levels >10 nmol/L: 0
NA-1 0.375 mg/kg (n = 8), Day 1, 0.00 hr
  Number of Subjects with Histamine levels >10 nmol/L: 0
NA-1 0.375 mg/kg (n = 8), Day 1, 0.08 hr
  Number of Subjects with Histamine levels >10 nmol/L: 0
NA-1 0.375 mg/kg (n = 8), Day 1, 0.17 hr
  Number of Subjects with Histamine levels >10 nmol/L: 0
NA-1 0.375 mg/kg (n = 8), Day 1, 0.25 hr
  Number of Subjects with Histamine levels >10 nmol/L: 0
NA-1 0.375 mg/kg (n = 8), Day 1, 0.50 hr
  Number of Subjects with Histamine levels >10 nmol/L: 0
NA-1 0.375 mg/kg (n = 8), Day 1, 1.00 hr
  Number of Subjects with Histamine levels >10 nmol/L: 0
NA-1 0.375 mg/kg (n = 8), Day 1, 2.00 hr
  Number of Subjects with Histamine levels >10 nmol/L: 0
NA-1 0.375 mg/kg (n = 8), Day 1, 24.00 hr
  Number of Subjects with Histamine levels >10 nmol/L: 0
NA-1 0.375 mg/kg (n = 8), Day 7
  Number of Subjects with Histamine levels >10 nmol/L: 0
NA-1 0.375 mg/kg (n = 8), Day 14
  Number of Subjects with Histamine levels >10 nmol/L: 0
NA-1 0.375 mg/kg (n = 8), Day 28 End-of-study
  Number of Subjects with Histamine levels >10 nmol/L: 0
NA-1 0.375 mg/kg (n = 8), Screening
  Number of Subjects with Histamine levels >10 nmol/L: 1
